According to patent US8802597B2, “Herbicidal pyrimidines” (E I du Pont de Nemours and Company, priority 2003, dated 2014):

Assays:
Experiment in all cases: Test C pre/postemergence
Format in all cases: in vivo
[1] = system: kochia (Kochia scoparia); conditions: for Kochia plant response rating: scale 0 to 100 (0 no effect, 100 complete control)
In short: (§1)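 Rating scale 0–100: 0 means no effect, 100 complete control; taken visually 12 to 14 days post-treatment versus controls. Pre- and postemergence greenhouse applications, postemergence at 1- to 4-leaf stage, non-phytotoxic solvent with surfactant as carrier.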

[2] = system: velvetleaf (Abutilon theophrasti); conditions: for Velvetleaf plant response rating: scale 0 to 100 (0 no effect, 100 complete control)
In short: as §1

[3] = system: goosegrass (Eleusine indica); conditions: for Goosegrass plant response rating: scale 0 to 100 (0 no effect, 100 complete control)
In short: as §1

[4] = system: pigweed (Amaranthus retroflexus); conditions: for Pigweed plant response rating: scale 0 to 100 (0 no effect, 100 complete control)
In short: as §1

[5] = system: cocklebur (Xanthium strumarium); conditions: for Cocklebur plant response rating: scale 0 to 100 (0 no effect, 100 complete control)
In short: as §1

[6] = system: soybean (Glycine max); conditions: for Soybean plant response rating: scale 0 to 100 (0 no effect, 100 complete control)
In short: as §1

[7] = system: common (oilseed) sunflower (Helianthus annuus); conditions: Preemergence
In short: as §1

[8] = system: eastern black nightshade (Solanum ptycanthum); conditions: Preemergence
In short: as §1

[9] = system: johnsongrass (Sorghum halepense); conditions: for Johnsongrass plant response rating: scale 0 to 100 (0 no effect, 100 complete control)
In short: as §1

[10] = system: bermudagrass (Cynodon dactylon)
In short: as §1

[11] = system: common ragweed (Ambrosia elatior); conditions: for Ragweed plant response rating: scale 0 to 100 (0 no effect, 100 complete control)
In short: as §1

[12] = system: lambsquarters (Chenopodium album); conditions: for Lambsquarters plant response rating: scale 0 to 100 (0 no effect, 100 complete control)
In short: as §1

[13] = Postemergence, 250 g ai/ha, scale 0 to 100
[14] = Preemergence, 31 g ai/ha, scale 0 to 100, 0 no effect, 100 complete control
[15] = Preemergence, 62 g ai/ha, scale 0 to 100, 0 no effect, 100 complete control
[16] = Preemergence, 125 g ai/ha, scale 0 to 100
[17] = Preemergence, 250 g ai/ha, scale 0 to 100
[18] = 31 g ai/ha, scale 0 to 100, 0 no effect, 100 complete control
[19] = 62 g ai/ha, scale 0 to 100, 0 no effect, 100 complete control

CCCCOC(=O)c1nc(C2CC2)nc(N)c1Br [Compound 16]
Plant response rating (scale of 0 to 100), Kochia ([1]; Postemergence, 31 g ai/ha): 95 | Kochia plant response rating ([1]; Postemergence, 62 g ai/ha): 100 | Kochia plant response rating ([1]; Postemergence, 125 g ai/ha): 100 | Plant response rating, Kochia [1, 13]: 100 | Plant response rating, Kochia [1, 14]: 90 | Plant response rating, Kochia [1, 15]: 95 | Plant response rating, Kochia [1, 16]: 100 | Plant response rating, Kochia [1, 17]: 100 | Plant response rating (scale of 0 to 100), Velvetleaf ([2]; Postemergence, 31 g ai/ha): 55 | Velvetleaf plant response rating ([2]; Postemergence, 62 g ai/ha): 60 | Velvetleaf plant response rating ([2]; Postemergence, 125 g ai/ha): 65 | Plant response rating, Velvetleaf [2, 13]: 90 | Plant response rating, Velvetleaf [2, 14]: 25 | Plant response rating, Velvetleaf [2, 15]: 90 | Plant response rating, Velvetleaf [2, 16]: 95 | Plant response rating, Velvetleaf [2, 17]: 100 | Plant response rating (scale of 0 to 100), Goosegrass ([3]; Postemergence, 31 g ai/ha): 0 | Goosegrass plant response rating ([3]; Postemergence, 62 g ai/ha): 0 | Goosegrass plant response rating ([3]; Postemergence, 125 g ai/ha): 0 | Plant response rating, Goosegrass [3, 13]: 20 | Plant response rating, Goosegrass [3, 14]: 0 | Plant response rating, Goosegrass [3, 15]: 0 | Plant response rating, Goosegrass [3, 16]: 0 | Plant response rating, Goosegrass [3, 17]: 0 | Plant response rating (scale of 0 to 100), Pigweed ([4]; Postemergence, 31 g ai/ha): 85 | Pigweed plant response rating ([4]; Postemergence, 62 g ai/ha): 90 | Pigweed plant response rating ([4]; Postemergence, 125 g ai/ha): 95 | Plant response rating, Pigweed [4, 13]: 95 | Plant response rating, Pigweed [4, 14]: 85 | Plant response rating, Pigweed [4, 15]: 95 | Plant response rating, Pigweed [4, 16]: 100 | Plant response rating, Pigweed [4, 17]: 100 | Plant response rating (scale of 0 to 100), Cocklebur ([5]; Postemergence, 31 g ai/ha): 75 | Cocklebur plant response rating ([5]; Postemergence, 62 g ai/ha): 95 | Cocklebur plant response rating ([5]; Postemergence, 125 g ai/ha): 100 | Plant response rating, Cocklebur [5, 13]: 100 | Plant response rating, Cocklebur [5, 14]: 45 | Plant response rating, Cocklebur [5, 15]: 95 | Plant response rating, Cocklebur [5, 16]: 95 | Plant response rating, Cocklebur [5, 17]: 100 | Plant response rating (scale of 0 to 100), Soybean ([6]; Postemergence, 31 g ai/ha): 85 | Soybean plant response rating ([6]; Postemergence, 62 g ai/ha): 95 | Soybean plant response rating ([6]; Postemergence, 125 g ai/ha): 100 | Plant response rating, Soybean [6, 13]: 100 | Plant response rating, Soybean [6, 14]: 75 | Plant response rating, Soybean [6, 15]: 85 | Plant response rating, Soybean [6, 16]: 100 | Plant response rating, Soybean [6, 17]: 100 | Plant response rating, Sunflower [7, 18]: 20 | Plant response rating, Sunflower [7, 19]: 85 | Plant response rating, Sunflower ([7]; 125 g ai/ha, scale 0 to 100): 100 | Plant response rating, Sunflower ([7]; 250 g ai/ha, scale 0 to 100): 100 | Plant response rating, Nightshade [8, 18]: 55 | Plant response rating, Nightshade [8, 19]: 90 | Plant response rating, Nightshade ([8]; 125 g ai/ha, scale 0 to 100): 95 | Plant response rating, Nightshade ([8]; 250 g ai/ha, scale 0 to 100): 100 | Plant response rating (scale of 0 to 100), Johnsongrass ([9]; Postemergence, 31 g ai/ha): 0 | Johnsongrass plant response rating ([9]; Postemergence, 62 g ai/ha): 0 | Johnsongrass plant response rating ([9]; Postemergence, 125 g ai/ha): 60 | Plant response rating, Johnsongrass [9, 13]: 70 | Plant response rating, Johnsongrass [9, 14]: 0 | Plant response rating, Johnsongrass [9, 15]: 40 | Plant response rating, Johnsongrass [9, 16]: 65 | Plant response rating, Johnsongrass [9, 17]: 80 | Plant response rating (scale of 0 to 100), Bermudagrass ([10]; Postemergence, 31 g ai/ha): 0 | Bermudagrass plant response rating ([10]; Postemergence, 62 g ai/ha, scale 0 to 100 (0 no effect, 100 complete control)): 0 | Plant response rating, Bermudagrass [10, 13]: 75 | Plant response rating, Bermudagrass ([10]; Postemergence, 125 g ai/ha, scale 0 to 100): 60 | Plant response rating, Bermudagrass [10, 14]: 0 | Plant response rating, Bermudagrass [10, 15]: 0 | Plant response rating, Bermudagrass [10, 16]: 0 | Plant response rating, Bermudagrass [10, 17]: 0 | Plant response rating (scale of 0 to 100), Ragweed ([11]; Postemergence, 31 g ai/ha): 60 | Ragweed plant response rating ([11]; Postemergence, 62 g ai/ha): 85 | Ragweed plant response rating ([11]; Postemergence, 125 g ai/ha): 95 | Plant response rating, Ragweed [11, 13]: 95 | Plant response rating, Ragweed [11, 14]: 45 | Plant response rating, Ragweed [11, 15]: 90 | Plant response rating, Ragweed [11, 16]: 95 | Plant response rating, Ragweed [11, 17]: 100 | Plant response rating (scale of 0 to 100), Lambsquarters ([12]; Postemergence, 31 g ai/ha): 95 | Lambsquarters plant response rating ([12]; Postemergence, 62 g ai/ha): 100 | Lambsquarters plant response rating ([12]; Postemergence, 125 g ai/ha): 100 | Plant response rating, Lambsquarters [12, 13]: 100 | Plant response rating, Lambsquarters [12, 14]: 95 | Plant response rating, Lambsquarters [12, 15]: 95 | Plant response rating, Lambsquarters [12, 16]: 100 | Plant response rating, Lambsquarters [12, 17]: 100
